In assay [1] the target is T1, human uPA (Homo sapiens, UniProt P00749).
T1 construct: purchased
Put plainly: in vitro uPA chromogenic substrate assay (glutaryl-glycyl-arginyl-p-nitroanilide, absorbance 405nm). The conditions noted are these: for inhibition at 20 µM: read-out: % INHIBITION OF uPA ACTIVITY 20 mM INHIBITOR; for inhibition at 100 µM: read-out: % INHIBITION OF uPA ACTIVITY 100 mM INHIBITOR
The format is biochemical. From the text: The values for the relative inhibitions contained in Table III are obtained by the following procedure.
An in vitro assay employs a commercially available synthetic chromogenic substrate, glutaryl-glycyl-arginyl-p-nitroanilide, and a commercially available human uPA. The uPA catalyzes the hydrolysis of the bond between the arginyl and p-nitroanilide moieties. The p-nitroaniline released upon hydrolysis of the substrate absorbs light at a wavelength of 405nm. The enzymatic activity is quantitated as a function of the increase in the absorbance of the solution at 405nm as measured with a spectrophotometer.
In order to obtain the data, stock solutions of the amiloride-related pyrazine derivative compounds were included in the assays, and the release of p-nitroaniline as followed by the change in absorbance at 405nm of the reaction mixture was compared to a control reaction mixture in which no amiloride-related pyrazine derivative compound was present.

Assay [2] concerns the target plasmin (Homo sapiens, UniProt P00747). The conditions noted are these: in vitro, result in words; cited from earlier work.
In assay [3] the target is thrombin (Homo sapiens, UniProt P00734). Particulars: in vitro, result in words; cited from earlier work.
Assay [4] addresses plasma kallikrein (Homo sapiens, UniProt P03952). Particulars: in vitro, result in words; cited from earlier work.
Assay [5] deals with tissue-type plasminogen activator (tPA) (Homo sapiens, UniProt P00750). Particulars: in vitro, result in words; cited from earlier work.
In assay [6] the test system is circulating cancer cells. Particulars: continuously administered orally to rats, result in words; cited from earlier work.
The subject of assay [7] is Corneal Vessels. Put plainly: rabbit corneal neovascularization model (PGE1 slow release pellet, amiloride agarose pellet implant). Format: in vivo. Particulars: result in words. The text has this:
A series of experiments have been conducted employing a rabbit model.

Structures are written as SMILES.

Sequence of tissue-type plasminogen activator (tPA) (P00750 36-562, species assumed): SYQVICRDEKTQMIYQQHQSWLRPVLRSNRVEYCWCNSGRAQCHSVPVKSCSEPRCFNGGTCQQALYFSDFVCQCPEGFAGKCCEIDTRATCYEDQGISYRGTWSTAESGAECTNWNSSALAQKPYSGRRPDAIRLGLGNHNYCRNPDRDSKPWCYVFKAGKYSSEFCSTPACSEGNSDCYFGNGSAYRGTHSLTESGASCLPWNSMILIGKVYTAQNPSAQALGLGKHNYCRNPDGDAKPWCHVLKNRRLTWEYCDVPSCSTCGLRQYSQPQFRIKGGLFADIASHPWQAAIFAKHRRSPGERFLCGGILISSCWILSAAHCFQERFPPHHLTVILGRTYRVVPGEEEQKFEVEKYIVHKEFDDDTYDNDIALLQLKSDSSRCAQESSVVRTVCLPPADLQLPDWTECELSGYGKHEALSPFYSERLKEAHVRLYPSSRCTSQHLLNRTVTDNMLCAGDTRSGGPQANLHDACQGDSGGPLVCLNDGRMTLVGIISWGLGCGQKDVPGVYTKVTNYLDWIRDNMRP
Sequence of plasmin (P00747 97-580): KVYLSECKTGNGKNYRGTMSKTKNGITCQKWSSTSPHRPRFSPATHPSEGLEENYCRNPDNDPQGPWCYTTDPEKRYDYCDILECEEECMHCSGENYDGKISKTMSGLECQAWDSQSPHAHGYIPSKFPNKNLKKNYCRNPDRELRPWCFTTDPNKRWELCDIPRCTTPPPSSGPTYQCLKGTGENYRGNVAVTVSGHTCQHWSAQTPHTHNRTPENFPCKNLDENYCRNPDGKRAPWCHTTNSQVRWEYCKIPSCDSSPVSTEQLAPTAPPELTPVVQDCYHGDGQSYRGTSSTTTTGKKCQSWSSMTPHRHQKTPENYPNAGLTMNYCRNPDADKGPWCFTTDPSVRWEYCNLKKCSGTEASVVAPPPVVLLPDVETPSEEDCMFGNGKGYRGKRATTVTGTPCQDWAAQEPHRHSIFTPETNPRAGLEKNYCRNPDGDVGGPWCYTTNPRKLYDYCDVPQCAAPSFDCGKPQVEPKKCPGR
Sequence of plasmin (P00747 581-810): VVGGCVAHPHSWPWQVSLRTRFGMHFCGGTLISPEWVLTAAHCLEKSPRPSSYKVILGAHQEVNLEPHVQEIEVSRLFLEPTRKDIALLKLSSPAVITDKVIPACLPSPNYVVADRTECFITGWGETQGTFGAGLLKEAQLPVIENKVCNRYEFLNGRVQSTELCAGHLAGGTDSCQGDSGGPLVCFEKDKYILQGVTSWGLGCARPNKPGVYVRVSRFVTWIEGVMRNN
Sequence of plasma kallikrein (P03952 20-638, species assumed): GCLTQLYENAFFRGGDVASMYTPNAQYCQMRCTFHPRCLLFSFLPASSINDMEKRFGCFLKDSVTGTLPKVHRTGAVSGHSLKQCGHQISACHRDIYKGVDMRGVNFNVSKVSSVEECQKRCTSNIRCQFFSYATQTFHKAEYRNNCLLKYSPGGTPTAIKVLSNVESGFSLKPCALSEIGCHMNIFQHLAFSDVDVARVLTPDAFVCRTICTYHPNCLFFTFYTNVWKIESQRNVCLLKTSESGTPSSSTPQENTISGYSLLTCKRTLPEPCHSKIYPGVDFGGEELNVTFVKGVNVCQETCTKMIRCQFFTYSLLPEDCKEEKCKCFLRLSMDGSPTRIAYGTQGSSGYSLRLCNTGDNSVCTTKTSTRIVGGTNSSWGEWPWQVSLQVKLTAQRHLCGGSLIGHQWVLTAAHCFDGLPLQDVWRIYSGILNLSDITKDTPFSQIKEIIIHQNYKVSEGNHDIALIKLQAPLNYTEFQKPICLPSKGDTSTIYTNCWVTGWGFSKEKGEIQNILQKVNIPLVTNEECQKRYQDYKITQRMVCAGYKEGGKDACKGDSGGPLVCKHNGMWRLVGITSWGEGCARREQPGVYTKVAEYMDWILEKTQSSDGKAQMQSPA

As to `NC(N)=NC(=O)c1nccnc1N` [5,6-HA, 3-amino-N-(diaminomethylene)pyrazinecarboxamide], in assay [1], the inhibition at 20 µM was 2.1% and the inhibition at 100 µM stood at 11.1%.
As to `N=C(N)NC(=O)c1nc(Cl)c(N)nc1N` [Amiloride, 3,5-diamino-6-chloro-N--(diaminomethylene)pyrazinecarboxamide], the inhibition of plasmin entry in assay [2] was “does not inhibit”. Besides, the inhibition of thrombin entry in assay [3] is given as “does not inhibit”. Besides, the “inhibition of plasma kallikrein” value in assay [4] is listed as “does not inhibit”. In addition, in assay [5], the “inhibition of tissue-type plasminogen activator (tPA)” value was “does not inhibit”. Further, the “inhibition of metastasis into the lung” value in assay [6] is given as “inhibited the metastasis of circulating cancer cells into the lung of the rat”. In addition, in assay [7] (amiloride-HCl·2H₂O agarose pellets in rabbit cornea), the inhibition of neovascularization result was “inhibited neovascularization in a dose dependent manner”. For the same compound, the “reversal of neovascularization already produced” value in assay [7] is reported as “reverse a portion of the neovascularization that had already been produced”.
Take `NC(=NCc1ccccc1)NC(=O)c1nc(Cl)c(N)nc1N` [BENZAMIL, 3,5-diamino-6--chloro-N-(benzylaminoaminomethylene)pyrazinecarboxamide]: in assay [1], the inhibition at 20 µM came out at 1.2% and the inhibition at 100 µM is 7.7%.
Taken in the same sequence, the figures for `Cc1ccc(CNC(=N)NC(=O)c2nc(Cl)c(NCc3ccc(Cl)cc3)nc2N)c(C)c1` [CBDMB, 3-amino-5-(N-4-chlorobenzylamino)-6-chloro-N-[(2,4-dimethylbenzyl)aminoaminomethylene]pyrazinecarboxamide] were 41.7% and 63.4%.
Taken in the same sequence, the figures for `NC(N)=NC(=O)c1nc(Cl)c(Cl)nc1N` [Compound 5-ClA, 3--amino-5,6-dichloro-N-(diaminomethylene)pyrazinecarboxamide] were 5% and 20.7%.
`NC(N)=NC(=O)c1nc(Br)cnc1N` [Compound 6-Br-5-HA, 3-amino-6-bromo-N--(diaminomethylene)pyrazinecarboxamide]: in assay [1], the inhibition at 20 µM worked out at 1% and the inhibition at 100 µM was determined as 7.7%.
Taken in the same sequence, the figures for `NC(N)=NC(=O)c1nc(Br)c(N)nc1N` [Compound 6-BrA, 3,5-diamino-6-bromo-N-(diaminomethylene)pyrazinecarboxamide] were 65.6% and 69.9%.
For `NC(N)=NC(=O)c1nc(F)c(N)nc1N` [Compound 6-FA, 3,5-diamino-6-fluoro-N-(diaminomethylene)pyrazinecarboxamide], in assay [1], the inhibition at 20 µM is 7.1% and the inhibition at 100 µM amounted to 27.9%.
`NC(N)=NC(=O)c1ncc(N)nc1N` [Compound 6-HA, 3,5-diamino-N-(diaminomethylene)pyrazinecarboxamide]: in assay [1], the inhibition at 20 µM turned out to be 15.3% and the inhibition at 100 µM amounted to 38.2%.
In the case of `NC(N)=NC(=O)c1nc(I)c(N)nc1N` [Compound 6-IA, 3,5-diamino-6-iodo-N-(diaminomethylene)pyrazinecarboxamide], the “% INHIBITION OF uPA ACTIVITY 20 mM INHIBITOR” value in assay [1] (20 mM INHIBITOR) came out at 64.4%. The “% INHIBITION OF uPA ACTIVITY 100 mM INHIBITOR” value in assay [1] (100 mM INHIBITOR) was determined as 83.9%.
Turning to `CN(C)c1nc(N)c(C(=O)N=C(N)N)nc1Cl` [DMA, 3-amino-5-dimethylamino-6-chloro-N--(diaminomethylene)pyrazinecarboxamide], in assay [1], the inhibition at 20 µM came out at 41.1% and the inhibition at 100 µM was 48.3%.
Taken in the same sequence, the figures for `CCN(c1nc(N)c(C(=O)N=C(N)N)nc1Cl)C(C)C` [EIPA, 3-amino-5-(N-ethyl-N--isopropylamino)-6-chloro-N-(diaminomethylene)pyrazinecarboxamide] were 28.3% and 56%.
Turning to `NC(N)=NC(=O)c1nc(Cl)c(N2CCCCCC2)nc1N` [HMA, 3-amino-5-(1-homopiperidinyl)-6--chloro-N-(diaminomethylene)pyrazinecarboxamide], in assay [1], the inhibition at 20 µM worked out at 51.1% and the inhibition at 100 µM worked out at 77%.
Taken in the same sequence, the figures for `CN(C)c1nc(N)c(C(=O)N=C(N)N)nc1I` [IDMA, 3-amino-5-(N,N-dimethylamino)-6-iodo-N--(diaminomethylene)pyrazinecarboxamide] were 40.3% and 73.1%.
Take `CN(CC(=O)N=C(N)N)c1nc(N)c(C(=O)N=C(N)N)nc1Cl` [MGCMA, 3-amino-6-chloro-5-[N-methyl-N-(guanidinocarbonylmethylamino)]-N(diaminomethylene)pyrazine carboxamide]: in assay [1], the inhibition at 20 µM is 29.1% and the inhibition at 100 µM worked out at 43%.
On the same counts, the results for `CC(C)CN(C)c1nc(N)c(C(=O)N=C(N)N)nc1Cl` [MIBA, 3-amino--5-(N-methyl-N-isobutylamino)-6-chloro-N-(diaminomethylene)pyrazinecarboxamide] are 18.7% and 57.3%.
On the same counts, the results for `NC(N)=NNC(=O)c1nc(Cl)c(N)nc1N` [MK-875, 3,5-diamino-6-chloro-N²--(diaminomethylene)pyrazinecarbonyl hydrazide] are 1.9% and 7.3%.
With `NC(=Nc1ccccc1)NC(=O)c1nc(Cl)c(N)nc1N` [PHENAMIL, 3,5-diamino-6-chloro-N--(phenylaminoaminomethylene)pyrazinecarboxamide], in assay [1], the inhibition at 20 µM was determined as 1.7% and the inhibition at 100 µM was 5.5%.
